Values after ≈ are worked out from the molar mass of the structure shown.
Key:
[1] = system: Human immunodeficiency virus 1; assay: Antiviral activity against (HIV-1) in MT-4 cells Value in parentheses is inhibitory concentration for cell growth (MT-4); format: functional, MT4
Human alphaherpesvirus 2 = assay: Antiviral activity against HSV-2(G) strain in primary rabbit kidney (PRK) / embryonic skin-muscle (E6SM) fibroblast culture lines; format: functional; conditions: Human alphaherpesvirus 2, Muscle tissue
Coxsackievirus B4 [2] = assay: Antiviral activity against coxsackie B4 in Vero cell culture lines; format: functional; conditions: Enterovirus B
Coxsackievirus B4 [3] = assay: Antiviral activity against coxsackie B4 virus in HeLa cell culture lines; format: functional; conditions: Enterovirus B
Semliki Forest virus = assay: Antiviral activity against semliki forest virus (SFV) in Vero cell culture lines; format: functional
[4] = system: Vesicular stomatitis virus; assay: Antiviral activity against vesicular stomatitis virus (VSV) in HeLa cell culture lines,; format: functional
[5] = system: Vesicular stomatitis virus; assay: Antiviral activity against vesicular stomatitis virus (VSV) in primary rabbit kidney (PRK) / embryonic skin-muscle (E6SM) fibroblast culture lines; format: functional; conditions: Muscle tissue
Vaccinia virus = assay: Antiviral activity against vaccinia virus (VV) in primary rabbit kidney (PRK) / embryonic skin-muscle (E6SM) fibroblast culture lines; format: functional; conditions: Orthopoxvirus vaccinia, Muscle tissue
Human alphaherpesvirus 1 = assay: Antiviral activity against HSV-1(KOS) strain in primary rabbit kidney (PRK) / embryonic skin-muscle (E6SM) fibroblast culture lines; format: functional; conditions: Human alphaherpesvirus 1, Muscle tissue
Poliovirus 1 = assay: Antiviral activity against polio virus type 1 in HeLa cell culture lines; format: functional; conditions: Enterovirus C
Human respirovirus 3 = assay: Antiviral activity against parainfluenza virus type 3 in Vero cell culture lines; format: functional
Sindbis virus = assay: Antiviral activity against sindbis virus in Vero cell culture lines; format: functional
[6] = system: Mammalian orthoreovirus 1; assay: Antiviral activity against reovirus type 1 in Vero cell culture lines; format: functional

| SMILES | MIC [1] | MIC (Human alphaherpesvirus 2) | MIC (Coxsackievirus B4 [2]) | MIC (Coxsackievirus B4 [3]) | MIC (Semliki Forest virus) | MIC [4] | MIC [5] | MIC (Vaccinia virus) | MIC (Human alphaherpesvirus 1) | MIC (Poliovirus 1) | MIC (Human respirovirus 3) | MIC (Sindbis virus) | MIC [6] |
| --- | --- | --- | --- | --- | --- | --- | --- | --- | --- | --- | --- | --- | --- |
| CCCOC(=O)C(CCSC[C@H]1OC(n2ccc3c(N)ncnc32)[C@H](O)[C@@H]1O)NC(=O)COC (stereo not given in full) | 0.8 µg/mL (≈ 1.61 µM) | 10 µg/mL (≈ 20.1 µM) | 15 µg/mL (≈ 30.1 µM) | 100 µg/mL (≈ 201 µM) | > 70 µg/mL | > 20 µg/mL | 2 µg/mL (≈ 4.02 µM) | 4 µg/mL (≈ 8.04 µM) | 20 µg/mL (≈ 40.2 µM) | 100 µg/mL (≈ 201 µM) | 20 µg/mL (≈ 40.2 µM) | > 40 µg/mL | > 30 µg/mL |
| COC(=O)C(CCSC[C@@H]1C[C@@H](O)[C@H](n2ccc3c(N)ncnc32)O1)NC(=O)C(F)(F)F (stereo not given in full) | > 100 µg/mL | > 200 µg/mL | > 200 µg/mL | > 200 µg/mL | > 400 µg/mL | 300 µg/mL (≈ 628 µM) | 20 µg/mL (≈ 41.9 µM) | 70 µg/mL (≈ 147 µM) | > 200 µg/mL | > 400 µg/mL | > 200 µg/mL | > 400 µg/mL | 40 µg/mL (≈ 83.8 µM) |
| CCCOC(=O)C(CCSC[C@H]1OC(n2ccc3c(N)ncnc32)[C@H](O)[C@@H]1O)NC(=O)C(F)(F)F (stereo not given in full) | – | > 10 µg/mL | > 150 µg/mL | > 100 µg/mL | > 200 µg/mL | > 20 µg/mL | > 10 µg/mL | 0.7 µg/mL (≈ 1.34 µM) | > 10 µg/mL | > 100 µg/mL | 70 µg/mL (≈ 134 µM) | 70 µg/mL (≈ 134 µM) | > 100 µg/mL |
| Nc1nccc2ncn([C@H]3C[C@H](O)[C@@H](CO)O3)c12 | > 50 µg/mL | 100 µg/mL (≈ 400 µM) | > 400 µg/mL | > 200 µg/mL | > 400 µg/mL | > 200 µg/mL | > 200 µg/mL | > 200 µg/mL | 150 µg/mL (≈ 599 µM) | > 200 µg/mL | > 400 µg/mL | > 400 µg/mL | > 400 µg/mL |
| CC(C)(C)C(=O)ONC(CCSC[C@H]1OC(n2ccc3c(N)ncnc32)[C@H](O)[C@@H]1O)C(=O)O (stereo not given in full) | > 200 µg/mL | > 100 µg/mL | > 400 µg/mL | > 400 µg/mL | > 400 µg/mL | > 400 µg/mL | > 100 µg/mL | 20 µg/mL (≈ 41.4 µM) | > 100 µg/mL | > 400 µg/mL | > 400 µg/mL | > 400 µg/mL | > 400 µg/mL |
| CC(C)(C)C(=O)OCn1nc([C@@H]2O[C@H](CO)[C@@H](O)[C@H]2O)c2ncnc(N)c21 | > 0.8 µg/mL | > 40 µg/mL | > 10 µg/mL | > 40 µg/mL | > 10 µg/mL | 30 µg/mL (≈ 78.7 µM) | 30 µg/mL (≈ 78.7 µM) | > 40 µg/mL | 30 µg/mL (≈ 78.7 µM) | > 40 µg/mL | 1 µg/mL (≈ 2.62 µM) | > 10 µg/mL | 3 µg/mL (≈ 7.87 µM) |
| CCCOC(=O)C(CCSC[C@H]1OC(n2ccc3c(N)ncnc32)[C@H](O)[C@@H]1O)NC(C)=O (stereo not given in full) | > 4 µg/mL | 20 µg/mL (≈ 42.8 µM) | 20 µg/mL (≈ 42.8 µM) | 20 µg/mL (≈ 42.8 µM) | > 40 µg/mL | 20 µg/mL (≈ 42.8 µM) | 7 µg/mL (≈ 15 µM) | 7 µg/mL (≈ 15 µM) | 40 µg/mL (≈ 85.6 µM) | 40 µg/mL (≈ 85.6 µM) | 20 µg/mL (≈ 42.8 µM) | > 40 µg/mL | 15 µg/mL (≈ 32.1 µM) |
| Nc1nccc2c1ncn2[C@@H]1O[C@H](CO)[C@@H](O)[C@H]1O | – | 100 µg/mL (≈ 376 µM) | > 200 µg/mL | > 400 µg/mL | > 400 µg/mL | > 2 µg/mL | 0.7 µg/mL (≈ 2.63 µM) | 1 µg/mL (≈ 3.76 µM) | > 400 µg/mL | > 400 µg/mL | 0.4 µg/mL (≈ 1.5 µM) | 70 µg/mL (≈ 263 µM) | 0.4 µg/mL (≈ 1.5 µM) |
| Nc1ncnc2c1ncn2C[C@H](O)CO [(S)-DHPA] | – | > 400 µg/mL | > 70 µg/mL | > 400 µg/mL | > 400 µg/mL | > 70 µg/mL | 20 µg/mL (≈ 95.6 µM) | 40 µg/mL (≈ 191 µM) | > 400 µg/mL | > 400 µg/mL | 10 µg/mL (≈ 47.8 µM) | > 400 µg/mL | 7 µg/mL (≈ 33.5 µM) |
| CCOC(=O)C(N)CCSC[C@H]1OC(n2ccc3c(N)ncnc32)[C@H](O)[C@@H]1O (stereo not given in full) | – | 20 µg/mL (≈ 48.6 µM) | 20 µg/mL (≈ 48.6 µM) | 70 µg/mL (≈ 170 µM) | > 100 µg/mL | 20 µg/mL (≈ 48.6 µM) | 7 µg/mL (≈ 17 µM) | 7 µg/mL (≈ 17 µM) | 20 µg/mL (≈ 48.6 µM) | 70 µg/mL (≈ 170 µM) | > 100 µg/mL | > 100 µg/mL | > 70 µg/mL |
| CCOC(=O)C(CCSC[C@H]1OC(n2ccc3c(N)ncnc32)[C@H](O)[C@@H]1O)NC(=O)COC (stereo not given in full) | – | > 100 µg/mL | > 150 µg/mL | 150 µg/mL (≈ 310 µM) | > 400 µg/mL | > 70 µg/mL | 70 µg/mL (≈ 145 µM) | 2 µg/mL (≈ 4.14 µM) | > 100 µg/mL | > 200 µg/mL | > 400 µg/mL | 300 µg/mL (≈ 620 µM) | 300 µg/mL (≈ 620 µM) |
| Nc1ncnc2c1ccn2[C@@H]1O[C@H](CO)[C@@H](O)[C@H]1O [TUBERCIDIN] | – | 0.2 µg/mL (≈ 0.751 µM) | 0.07 µg/mL (≈ 0.263 µM) | 0.2 µg/mL (≈ 0.751 µM) | > 0.1 µg/mL | 0.07 µg/mL (≈ 0.263 µM) | 0.07 µg/mL (≈ 0.263 µM) | > 0.1 µg/mL | > 0.2 µg/mL | 0.2 µg/mL (≈ 0.751 µM) | 0.02 µg/mL (≈ 0.0751 µM) | > 0.1 µg/mL | 0.02 µg/mL (≈ 0.0751 µM) |
